Assay results taken from PubChem BioAssay (NCI).
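Where inhibition never reached the appropriate level, the endpoint shown equals the highest concentration tested. Otherwise, values were interpolated linearly from a five-concentration, 48-hour dose response in 96-well plates. TGI marks complete inhibition of growth.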

Assays:
Assay in all cases: NCI tumour cell line growth inhibition, 48 h
[1] = system: SK-OV-3 ovarian
[2] = system: UACC-62 melanoma
[3] = system: HOP-18 NSCLC
[4] = system: DLD-1 colon
[5] = system: RXF 393 renal
[6] = system: OVCAR-4 ovarian
[7] = system: P388/ADR leukemia
[8] = system: HCC-2998 colon
[9] = system: KM12 colon
[10] = system: HCT-15 colon
[11] = system: K-562 leukemia
[12] = system: A549 NSCLC
[13] = system: CCRF-CEM leukemia
[14] = system: SK-MEL-2 melanoma
[15] = system: HOP-62 NSCLC
[16] = system: NCI-H522 lung
[17] = system: UO-31 renal
[18] = system: HT29 colon
[19] = system: CAKI-1 renal
[20] = system: MOLT-4 leukemia
[21] = system: UACC-257 melanoma
[22] = system: MCF7 breast
[23] = system: RPMI-8226 leukemia
[24] = system: KM20L2 colon
[25] = system: P388 leukemia
[26] = system: HL-60(TB) leukemia
[27] = system: NCI-H460 lung
[28] = system: A498 renal
[29] = system: COLO 205 colon
[30] = system: EKVX NSCLC
[31] = system: IGROV1 ovarian
[32] = system: SK-MEL-5 melanoma
[33] = system: DMS 114 small cell lung
[34] = system: OVCAR-5 ovarian
[35] = system: M19-MEL melanoma
[36] = system: SF-539 CNS
[37] = system: SNB-75 CNS
[38] = system: OVCAR-3 ovarian
[39] = system: SF-268 CNS
[40] = system: NCI/ADR-RES ovarian
[41] = system: OVCAR-8 ovarian
[42] = system: SN12K1 renal
[43] = system: NCI-H226 lung
[44] = system: SW-620 colon
[45] = system: HOP-92 NSCLC
[46] = system: U251 CNS
[47] = system: NCI-H23 lung
[48] = system: SNB-19 CNS
[49] = system: SF-295 CNS
[50] = system: SK-MEL-28 melanoma
[51] = system: HCT-116 colon
[52] = system: SN12C renal
[53] = system: SNB-78 CNS
[54] = system: LOX IMVI melanoma
[55] = system: DMS 273 small cell lung

Structure (SMILES): O=C1NC(=O)C2(CCc3ccc(N(CCCl)CCCl)cc32)N1 (stereo not given)
- TGI [1]: 47 µM
- TGI [2]: 15.8 µM
- TGI [3]: 64.4 µM
- TGI [4]: > 81.8 µM
- TGI [5]: 22.5 µM
- TGI [6]: 41.4 µM
- TGI [7]: 36.7 µM
- TGI [8]: 34.1 µM
- TGI [9]: > 84.1 µM
- TGI [10]: 49 µM
- TGI [11]: > 100 µM
- TGI [12]: > 65 µM
- TGI [13]: > 79.7 µM
- TGI [14]: 43.4 µM
- TGI [15]: 35.5 µM
- TGI [16]: 20.3 µM
- TGI [17]: 48 µM
- TGI [18]: 59.3 µM
- TGI [19]: > 47.9 µM
- TGI [20]: 49.8 µM
- TGI [21]: 45.2 µM
- TGI [22]: 61.4 µM
- TGI [23]: 99.2 µM
- TGI [24]: 42.8 µM
- TGI [25]: 15.5 µM
- TGI [26]: 9.75 µM
- TGI [27]: 23.8 µM
- TGI [28]: 33.1 µM
- TGI [29]: 17.5 µM
- TGI [30]: 16.4 µM
- TGI [31]: 34.6 µM
- TGI [32]: 26.6 µM
- TGI [33]: 26 µM
- TGI [34]: 50.2 µM
- TGI [35]: 39.5 µM
- TGI [36]: 22.2 µM
- TGI [37]: 26.3 µM
- TGI [38]: 41.4 µM
- TGI [39]: 73.5 µM
- TGI [40]: 40.6 µM
- TGI [41]: 36.2 µM
- TGI [42]: 37.1 µM
- TGI [43]: 21.7 µM
- TGI [44]: 61.9 µM
- TGI [45]: 39.7 µM
- TGI [46]: 33 µM
- TGI [47]: 26.2 µM
- TGI [48]: > 84.7 µM
- TGI [49]: > 61.5 µM
- TGI [50]: 38.1 µM
- TGI [51]: 31.7 µM
- TGI [52]: > 100 µM
- TGI [53]: > 100 µM
- TGI [54]: 26.5 µM
- TGI [55]: 16 µM
